What all share (type): cell-based
Common to all, as to conditions: Homo sapiens

The subject of test [1] is CEACAM5-positive MKN-45 cells. Put plainly: Cell viability assay (Cell Titer-Glo, six days) on MKN-45. The method, then: (§1) Cytotoxicity effects of the ADC on the cancer cell lines were measured by cell viability assays. Cells were seeded in a volume of 90 μL in 96-well plates the day before treatment. Test compounds (ADCs or free payloads) were formulated at 10-fold the starting concentration in cell culture medium. Test compounds were serial diluted (1:4) and 10 μL of each dilution was added to the cells in triplicates. Plates were cultured at 37° C. in a CO2 incubator for six days. For cell viability measurement, Cell Titer-Glo® reagent (Promega™ Corp, Madison, WI) was added to each well, and plates processed according to the manufacturer's instructions. Luminescence signals were measured using a Varioskan plate reader (Thermo Fisher). Luminescence readings were converted to % viability relative to untreated cells. Data was fitted with non-linear regression analysis, using log (inhibitor) vs. response, variable slope, 4-parameter fit equation using Genedata Screener or GraphPad Prism. Data is shown as % relative cell viability vs. molar compound concentration, error bars indicating standard deviation (SD) of duplicates or triplicates. Geometric mean values of IC50s derived from multiple experiments were calculated.
(§2) A fold reduction in IC50, defined as a S[…], was calculated by dividing the IC50 against CEACAM5-negative MDA-MB-231 cells by the IC50 against each CEACAM5-positive cell line (see Table 6). […]
In general terms: Cellular ATP, detected with luciferase, serves as a proxy for viable cell number.

The test system of test [2] is CEACAM5-positive SK-CO-1 cells. As to the kind of experiment: Cell viability assay (Cell Titer-Glo, six days) on SK-CO-1. The method, then:
as §1, §2

Test [3] relates to CEACAM5-positive SNU-16 cells. Put plainly: Cell viability assay (Cell Titer-Glo, six days) on SNU-16. The procedure: as §1, §2
For test [4], the system named is CEACAM5-positive LS174T cells. As to the kind of experiment: Cell viability assay (Cell Titer-Glo, six days) on LS174T. The method, then:
as §1

The subject of test [5] is CEACAM5-negative MDA-MB-231 cells. As to the kind of experiment: Cell viability assay (Cell Titer-Glo, six days) on MDA-MB-231. The method, then:
as §1, §2

Here are results for 1 molecule from patent US20250170268A1, “METHODS AND TOOLS FOR CONJUGATION TO ANTIBODIES” (priority 2022, published 2025).

Regarding `CC[C@@]1(O)C(=O)OCc2c1cc1n(c2=O)Cc2c-1nc1cc(F)c(C)c3c1c2[C@@H](N)CC3` [Payload, (1S,9S)-1-Amino-9-ethyl-5-fluoro-1,2,3,9,12,15-hexahydro-9-hydroxy-4-methyl-10H, 13H-benzo (de) pyrano (3′,4′: 6,7) indolizino (1,2-b) quinoline-10,13-dione], the IC50 (as a rule, the concentration that inhibits the measured activity by half) was 6.6e-10 M in test [1] (144 h, read-out: MKN-45 IC50 [M], n ≥ 2, MKN-45, CEACAM5 positive, six days, geometric mean); 2.2e-10 M in test [2] (144 h, read-out: SK-CO-1 IC50 [M], n ≥ 2, SK-CO-1, CEACAM5 positive, six days, geometric mean); 2.9e-10 M in test [3] (144 h, read-out: SNU-16 IC50 [M], n ≥ 2, SNU-16, CEACAM5 positive, six days, geometric mean); 3e-10 M in test [4] (144 h, read-out: LS174T IC50 [M], n ≥ 2, CEACAM5 positive, six days, geometric mean); 6e-10 M in test [5] (144 h, read-out: MDA-MB-231 IC50 [M], n ≥ 3, MDA-MB-231, CEACAM5 negative, six days, n/a = below −50% effect cut-off). Besides, the Emax is -100% in test [1] (MKN-45, at the highest tested compound concentration, read-out: Maximal effect compared to untreated controls, MKN-45); -97% in test [2] (SK-CO-1, at the highest tested compound concentration, read-out: Maximal effect compared to untreated controls, SK-CO-1); -99% in test [3] (SNU-16, at the highest tested compound concentration, read-out: Maximal effect compared to untreated controls, SNU-16); -91% in test [4] (at the highest tested compound concentration, read-out: Maximal effect compared to untreated controls, LS174T); -91% in test [5] (MDA-MB-231, at the highest tested compound concentration, read-out: Maximal effect compared to untreated controls, MDA-MB-231).
